What was measured:
HBV polymerase = target: T1, HBV polymerase (Hepatitis B virus genotype A2 subtype adw2, UniProt P03159); assay: In vitro reverse transcription activity of HBV polymerase (ELISA-type, DIG/biotin nucleotides); assay type: biochemical; conditions: for inhibition at 0.01 µg/mL / inhibition at 0.1 µg/mL / inhibition at 1 µg/mL: read-out: Inhibition activity on HBV-RT (%)
T1 construct: made in house; host or cells: E. coli
Method: <Experiment 1> Inhibitory Effect on the In Vitro Activities of HBV Polymerase in Reverse Transcription
The following in vitro experiment was performed to determine the effect of the compounds of formula 1 on the activity of HBV polymerase during reverse transcription.
The present inventors submitted application for a patent concerning HBV polymerase genetically expressed in and separated from E.coli, the process of its preparation, and the method to measure the enzyme activities (KR 94-3918, KR 96-33998). In the present experiments HBV polymerase was used which had been expressed in E. coli as stated above.
The method used in the present invention to measure in vitro reverse transcribing activities of HBV polymerase is as follows. Basic principles are the same as for ELISA. Nucleotides with biotin or digoxigenin group attached are included as substrates and anti-DIG antibodies attached to peroxidase enzyme recognize the polymerized substrates.
To the wells coated with streptavidin, 20 μl of HBV polymerase, 20 μl of reaction mixture (10 μM each of DIG-UTP and Biotin-UTP, 46 mM Tris-HCl, 266 mM KCl, 27.5 mM MgCl2, 9.2 mM DTT substrate/primer nybrid), and 20 μl of test compound (added to 1, 0.1, and 0.01 μg/ml) were added and allowed to react at 22° C. for 15 hrs. During this reaction, HBV polymerase catalyzes DNA synthesis and digoxigenin and biotin attached to nucleotides form bonds with streptavidin coated on the bottom of wells. When the reaction was done, each well was washed with 250 μl of cleaning buffer (pH 7.0) for 30 seconds, which was repeated five times to remove remaining impurities. 200 μl of anti-DIG-POD antibody was added to each well and allowed to react for 1 hr at 37° C., and the wells were washed with cleaning buffer to remove impurities. 200 μl each of ABTS™, a substrate of peroxidase, was then added and allowed to react at room temperature for 30 min. Absorbance was measured at 405 nm using ELISA reader.
The percentage of reduction in HBV polymerase activities for reverse transcription was calculated using the group without test compound as a control and the results are shown in Table 3.

HBV = assay: Proliferation of HBV in HBV producing cell line HepG 2.2.15 (competitive PCR of culture supernatant); assay type: cell-based, Hepatitis B virus; conditions: HepG 2.2.15, one week; for inhibition at 0.01 µg/mL / inhibition at 0.1 µg/mL / inhibition at 1 µg/mL: Hepatitis B virus, HepG2.2.15, 168 h, read-out: Inhibitory effect on the HBV proliferation: Inhibition activity on HBV-RT (%)
Method: <Experiment 2> Inhibitory Effect on the Proliferation of HBV in HBV Producing Cell Line
The following experiment was performed to determine inhibitory effects of compounds of formula 1 on the proliferation of HBV producing cell line.
To test for antiviral effect, replication and proliferation of HBV were measured in HepG 2.2.15, a human liver cancer cell line.
The cell concentration was adjusted to 1×10^5 cells/ml and 1 ml was added to each well of a 24-well cell culture plate, which was then kept in a culture box for 3-4 days at 37° C. under 5% CO2 until cells grew sufficiently, changing culture medium everyday. When the cells matured sufficiently, the test compounds were added to the final concentrations of 0.01, 0.1, and 1 μg/ml. One week after the addition of test compounds, the culture solution was centrifuged at 5,000 rpm for 10 min. 25 μl of supernatant was transferred to a new tube and 5 μl of lysis solution [0.54N NaOH, 0.06% NP40] was added to each tube. After keeping the tube at 37° C. for 1 hr, 30 μl of neutralizing solution [0.09N HCl 0.1MTris-HCl, pH7.4] was added as a reaction solution for competitive polymerase chain reaction (PCR).
PCR was performed using genetic sequence of HBV core protein as a matrix. PCR reaction was carried out by adding 1 unit of Taq polymerase enzyme to 25 pmol of each primer, 250 μM dNTP, 5 μl of PCR reaction solution [0.54N NaOH, 0. 06% NP40, 0.09N HCl, 0.1M Tris-HCl, pH 7.4].
DNA polymerized by PCR was electrophoresed on Agarose gel and quantitatively analyzed using an image analyzer (Gel Doc 1000, Bio-Rad) in order to evaluate the effect of compounds of the present invention on the reduction of HBV proliferation.
3TC (lamivudine) was used as a positive control at the same concentrations as those of the test compounds. The percentage of reduction in HBV proliferation was calculated using the group without test compound as a control and the results are represented in Table 4.

T1 sequence (P03159 whole entry): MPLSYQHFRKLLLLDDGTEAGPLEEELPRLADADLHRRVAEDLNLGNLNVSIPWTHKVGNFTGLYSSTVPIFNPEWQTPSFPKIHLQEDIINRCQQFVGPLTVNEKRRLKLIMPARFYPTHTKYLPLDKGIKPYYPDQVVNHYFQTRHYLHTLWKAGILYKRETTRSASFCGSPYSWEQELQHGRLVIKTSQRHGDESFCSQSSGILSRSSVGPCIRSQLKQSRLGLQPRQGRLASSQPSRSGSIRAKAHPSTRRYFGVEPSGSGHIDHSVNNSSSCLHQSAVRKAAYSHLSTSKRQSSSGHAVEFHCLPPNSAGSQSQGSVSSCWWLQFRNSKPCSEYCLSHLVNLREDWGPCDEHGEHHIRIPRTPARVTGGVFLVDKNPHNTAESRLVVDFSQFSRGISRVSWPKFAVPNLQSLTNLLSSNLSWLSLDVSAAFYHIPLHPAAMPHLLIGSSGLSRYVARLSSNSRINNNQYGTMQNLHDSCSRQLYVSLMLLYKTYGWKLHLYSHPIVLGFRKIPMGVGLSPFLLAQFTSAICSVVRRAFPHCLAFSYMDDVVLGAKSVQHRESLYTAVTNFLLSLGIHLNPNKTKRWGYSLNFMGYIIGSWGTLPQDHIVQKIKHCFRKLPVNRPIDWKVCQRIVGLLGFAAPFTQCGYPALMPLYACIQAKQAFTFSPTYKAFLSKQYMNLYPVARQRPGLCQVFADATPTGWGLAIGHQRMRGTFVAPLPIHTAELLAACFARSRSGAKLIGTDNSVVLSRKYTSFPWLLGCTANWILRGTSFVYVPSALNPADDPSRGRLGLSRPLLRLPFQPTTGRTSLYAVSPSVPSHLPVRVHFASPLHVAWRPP

Molecule: CNc1ccc([N+](=O)[O-])c(Nc2ccc3[nH]ncc3c2)n1 [Example 3, 2-(1H-5-indazolylamino)-6-methyl amino-3-nitropyridine]
- Inhibition activity on HBV-RT (%) (HBV polymerase; 0.01 μg/ml test compound): 20%
- Inhibition activity on HBV-RT (%) (HBV polymerase; 0.1 μg/ml test compound): 47%
- Inhibition activity on HBV-RT (%) (HBV polymerase; 1 μg/ml test compound): 58%
- Inhibitory effect on the HBV proliferation: Inhibition activity on HBV-RT (%) (HBV; 0.1 μg/ml): 35%
- Inhibitory effect on the HBV proliferation: Inhibition activity on HBV-RT (%) (HBV; 1 μg/ml): 53%

Molecule: O=[N+]([O-])c1ccc(NCc2cccnc2)nc1Nc1ccc2[nH]ncc2c1 [Example 19, 2-(1H-5-indazolylamino)-3-nitro-6-(3-pyridyl)methylaminopyridine]
- inhibition at 0.01 µg/mL (HBV polymerase; 0.01 μg/ml test compound): 42%
- inhibition at 0.1 µg/mL (HBV polymerase; 0.1 μg/ml test compound): 58%
- inhibition at 1 µg/mL (HBV polymerase; 1 μg/ml test compound): 91%
- inhibition at 0.01 µg/mL (HBV; 0.01 μg/ml): 30%
- inhibition at 0.1 µg/mL (HBV; 0.1 μg/ml): 51%
- inhibition at 1 µg/mL (HBV; 1 μg/ml): 85%

Molecule: COCC(C)Nc1ccc([N+](=O)[O-])c(Nc2ccc3[nH]ncc3c2)n1 (centres unmarked) [Example 15, 2-(1H-5-indazolylamino)-6-(2-methoxy-1-methyl)ethylamino-3-nitropyridine]
- Inhibition activity on HBV-RT (%) (HBV polymerase; 0.01 μg/ml test compound): 47%
- Inhibition activity on HBV-RT (%) (HBV polymerase; 0.1 μg/ml test compound): 68%
- Inhibition activity on HBV-RT (%) (HBV polymerase; 1 μg/ml test compound): 97%
- Inhibitory effect on the HBV proliferation: Inhibition activity on HBV-RT (%) (HBV; 0.01 μg/ml): 36%
- Inhibitory effect on the HBV proliferation: Inhibition activity on HBV-RT (%) (HBV; 0.1 μg/ml): 60%
- Inhibitory effect on the HBV proliferation: Inhibition activity on HBV-RT (%) (HBV; 1 μg/ml): 95%

Molecule: O=[N+]([O-])c1ccc(NC2CC2)nc1Nc1ccc2[nH]ncc2c1 [Example 8, 6-cyclopropylamino-2-(1H-5-indazolylamino)-3-nitropyridine]
- inhibition at 0.01 µg/mL (HBV polymerase; 0.01 μg/ml test compound): 38%
- inhibition at 0.1 µg/mL (HBV polymerase; 0.1 μg/ml test compound): 52%
- inhibition at 1 µg/mL (HBV polymerase; 1 μg/ml test compound): 72%
- inhibition at 0.01 µg/mL (HBV; 0.01 μg/ml): 25%
- inhibition at 0.1 µg/mL (HBV; 0.1 μg/ml): 46%
- inhibition at 1 µg/mL (HBV; 1 μg/ml): 65%

Molecule: CN1CCN(c2ccc([N+](=O)[O-])c(Nc3ccc4cn[nH]c4c3)n2)CC1 [Example 26, 2-(1H-6-indazolylamino)-6-(4-methyl-1-piperazinyl)-3-nitropyridine]
- inhibition at 0.01 µg/mL (HBV polymerase; 0.01 μg/ml test compound): 18%
- inhibition at 0.1 µg/mL (HBV polymerase; 0.1 μg/ml test compound): 40%
- inhibition at 1 µg/mL (HBV polymerase; 1 μg/ml test compound): 63%

Molecule: 6-(2-hydroxyethyl)methylamino-2-(1H-5-indazolylamino)-3-nitropyridine [Example 10]
- Inhibition activity on HBV-RT (%) (HBV polymerase; 0.01 μg/ml test compound): 50%
- Inhibition activity on HBV-RT (%) (HBV polymerase; 0.1 μg/ml test compound): 58%
- Inhibition activity on HBV-RT (%) (HBV polymerase; 1 μg/ml test compound): 78%

Molecule: Nc1ccc([N+](=O)[O-])c(Nc2ccc3[nH]ncc3c2)n1 [Example 9, 6-amino-2-(1H-5-indazolylamino)-3-nitropyridine]
- inhibition at 0.01 µg/mL (HBV polymerase; 0.01 μg/ml test compound): 40%
- inhibition at 0.1 µg/mL (HBV polymerase; 0.1 μg/ml test compound): 59%
- inhibition at 1 µg/mL (HBV polymerase; 1 μg/ml test compound): 80%

Molecule: O=[N+]([O-])c1ccc(N2CCC(O)CC2)nc1Nc1ccc2cn[nH]c2c1 [Example 29, 6-(4-hydroxy-1-piperidinyl)-2-(1H-6-indazolylamino)-3-nitropyridine]
- inhibition at 0.01 µg/mL (HBV polymerase; 0.01 μg/ml test compound): 10%
- inhibition at 0.1 µg/mL (HBV polymerase; 0.1 μg/ml test compound): 35%
- inhibition at 1 µg/mL (HBV polymerase; 1 μg/ml test compound): 52%

Molecule: Nc1ccn([C@@H]2CS[C@H](CO)O2)c(=O)n1 [Example 3TC, lamivudine, reference compound]
- inhibition at 0.01 µg/mL (HBV; 0.01 μg/ml): 48%
- inhibition at 0.1 µg/mL (HBV; 0.1 μg/ml): 80%
- inhibition at 1 µg/mL (HBV; 1 μg/ml): 99%

Molecule: CN1CCN(Nc2ccc([N+](=O)[O-])c(Nc3ccc4[nH]ncc4c3)n2)CC1 [Example 17, 2-(1H-5-indazolylamino)-6-(4-methyl-1-piperazinyl)amino-3-nitropyridine]
- inhibition at 0.01 µg/mL (HBV polymerase; 0.01 μg/ml test compound): 41%
- inhibition at 0.1 µg/mL (HBV polymerase; 0.1 μg/ml test compound): 52%
- inhibition at 1 µg/mL (HBV polymerase; 1 μg/ml test compound): 75%

Molecule: C[C@@H](CCO)Nc1ccc([N+](=O)[O-])c(Nc2ccc3cn[nH]c3c2)n1 [Example 13, 6-[(1S)-1-(hydroxyethyl)ethylamino]-2-(1H-6-indazolylamino)-3-nitropyridine]
- inhibition at 0.01 µg/mL (HBV polymerase; 0.01 μg/ml test compound): 10%
- inhibition at 0.1 µg/mL (HBV polymerase; 0.1 μg/ml test compound): 35%
- inhibition at 1 µg/mL (HBV polymerase; 1 μg/ml test compound): 66%

Molecule: O=[N+]([O-])c1ccc(N2CCC(O)CC2)nc1Nc1ccc2[nH]ncc2c1 [Example 28, 6-(4-hydroxy-1-piperidinyl)-2-(1H-5-indazolylamino)-3-nitropyridine]
- inhibition at 0.01 µg/mL (HBV polymerase; 0.01 μg/ml test compound): 20%
- inhibition at 0.1 µg/mL (HBV polymerase; 0.1 μg/ml test compound): 34%
- inhibition at 1 µg/mL (HBV polymerase; 1 μg/ml test compound): 55%

Source: patent publication US6743795B1, “3-nitropyridine derivaives and the pharmaceutical compositions containing said derivatives” (Dong Wha Pharm. Ind. Co. Ltd., priority 1999, dated 2004)
